Data taken from patent US20070219186A1, “Pyrazolo[1,5-A]pyrimidine derivatives and methods of use thereof” (priority 2006, published 2007).
Read-outs that look alike come from different tables or passages of the source.

Molecular target: T1, human B-Raf (Homo sapiens, UniProt P15056)
T1 construct: Flag; GST; made in house; host or cells: Sf9 insect cells (B-Raf); E. coli (MEK1-GST)
Experiment: B-Raf Kinase to MEK1 ELISA
Type: biochemical
Settings: for inhibition at 10 µM: read-out: % Inhib./10 uM
How it was run: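 Flag/GST-tagged human B-Raf (Sf9, ~20 ng/point) phosphorylates non-active GST-MEK1 (50 nM final) with ATP and MgCl2 in MOPS pH 7.2 buffer, 60 min at RT. Product is captured on anti-GST plates; MEK1 pSer217/221 is read by phospho-antibody plus europium conjugate (DELFIA).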

[1] = median, cpd concentrations from 10 μM to 30 nM in half log dilutions, read-out: Median IC50

T1 sequence (P15056 whole entry): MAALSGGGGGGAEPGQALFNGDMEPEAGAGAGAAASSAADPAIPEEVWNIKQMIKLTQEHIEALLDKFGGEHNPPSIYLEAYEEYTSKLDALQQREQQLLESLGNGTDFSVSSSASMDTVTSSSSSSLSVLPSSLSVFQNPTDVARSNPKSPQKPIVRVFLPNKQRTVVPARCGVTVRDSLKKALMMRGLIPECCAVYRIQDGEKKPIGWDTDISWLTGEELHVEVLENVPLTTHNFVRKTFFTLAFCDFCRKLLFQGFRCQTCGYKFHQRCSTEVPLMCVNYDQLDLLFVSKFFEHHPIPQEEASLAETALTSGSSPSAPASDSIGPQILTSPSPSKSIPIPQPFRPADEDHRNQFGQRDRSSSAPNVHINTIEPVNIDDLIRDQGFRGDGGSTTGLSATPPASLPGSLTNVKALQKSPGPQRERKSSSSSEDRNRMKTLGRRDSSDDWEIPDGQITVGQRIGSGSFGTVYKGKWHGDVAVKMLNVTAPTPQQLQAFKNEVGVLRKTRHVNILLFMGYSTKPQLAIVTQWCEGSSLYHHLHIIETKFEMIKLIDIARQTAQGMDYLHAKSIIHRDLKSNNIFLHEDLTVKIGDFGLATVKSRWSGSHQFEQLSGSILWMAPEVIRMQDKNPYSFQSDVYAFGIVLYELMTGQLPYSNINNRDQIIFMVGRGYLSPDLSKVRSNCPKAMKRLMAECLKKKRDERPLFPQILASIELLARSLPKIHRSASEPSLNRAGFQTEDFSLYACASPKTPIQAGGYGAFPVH

Molecule | IC50 [1] [nM] | inhibition at 10 µM [%] | IC50 [nM] | % Inhib./10 uM (single point assay, 10 uM) [%]
O=C(Nc1cccc(-c2ccnc3cc(-c4ccc(F)cc4)nn23)c1)c1cccc(C(F)(F)F)c1 [Example 139, N-{3-[2-(4-fluorophenyl)pyrazolo[1,5-a]pyrimidin-7-yl]phenyl}-3-(trifluoromethyl)benzamide] | > 10000 | 35 | – | –
CCOC(=O)c1cnn2c(-c3cccc(NC(=O)c4cc(Cl)cc(Cl)c4)c3)ccnc12 [Example 72, ethyl 7-{3-[(3,5-dichlorobenzoyl)amino]phenyl}pyrazolo[1,5-a]pyrimidine-3-carboxylate] | > 10000 | 4 | – | –
O=C(Nc1cccc(-c2ccnc3cc(-c4ccncc4)nn23)c1)c1ccc(Cl)cc1 [Example 151, 4-chloro-N-[3-(2-pyridin-4-ylpyrazolo[1,5-a]pyrimidin-7-yl)phenyl]benzamide] | > 10000 | 33 | – | –
CC(=O)c1cccc(-c2cnn3c(-c4cccc(NC(=O)c5cccc(C(F)(F)F)c5)c4)ccnc23)c1 [Example 299, N-{3-[3-(3-acetylphenyl)pyrazolo[1,5-a]pyrimidin-7-yl]phenyl}-3-(trifluoromethyl)benzamide] | – | 63 | 619 | –
Cc1cc2nccc(-c3cccc(NC(=O)c4cccc(C(F)(F)F)c4)c3)n2n1 [Example 112, N-[3-(2-methylpyrazolo[1,5-a]pyrimidin-7-yl)phenyl]-3-(trifluoromethyl)benzamide] | > 10000 | 26 | – | –
CC(C)(C)OC(=O)N1CCN(c2cc3nccc(-c4cccc(NC(=O)c5cccc(C(F)(F)F)c5)c4)n3n2)CC1 [Example 206, tert-butyl 4-[7-(3-{[3-(trifluoromethyl)benzoyl]amino}phenyl)pyrazolo[1,5-a]pyrimidin-2-yl]piperazine-1-carboxylate] | > 10000 | 18 | – | –
O=C(Nc1cccc(-c2ccnc3cc(-c4ccncc4)nn23)c1)c1cccc(Cl)c1 [Example 150, 3-chloro-N-[3-(2-pyridin-4-ylpyrazolo[1,5-a]pyrimidin-7-yl)phenyl]benzamide] | – | – | 1100 | –
CCOC(=O)c1cnn2c(-c3cccc(NC(=O)c4cccc(Br)c4)c3)ccnc12 [Example 4, ethyl 7-{3-[(3-bromobenzoyl)amino]phenyl}pyrazolo[1,5-a]pyrimidine-3-carboxylate] | > 10000 | 4 | – | –
CCOC(=O)c1cnn2c(-c3cccc(NC(=O)c4cccc(C#N)c4)c3)ccnc12 [Example 13, ethyl 7-{3-[(3-cyanobenzoyl)amino]phenyl}pyrazolo[1,5-a]pyrimidine-3-carboxylate] | > 20000 | 27 | – | –
CCOC(=O)c1cnn2c(-c3cccc(NC(=O)Nc4ccc(Cl)cc4Cl)c3)ccnc12 [Example 14, ethyl 7-[3-({[(2,4-dichlorophenyl)amino]carbonyl}amino)phenyl]pyrazolo[1,5-a]pyrimidine-3-carboxylate] | > 10000 | 0 | – | –
CCOC(=O)c1cnn2c(-c3cccc(NC(=O)c4ccc(OC)c(C(F)(F)F)c4)c3)ccnc12 [Example 30, ethyl 7-(3-{[4-methoxy-3-(trifluoromethyl)benzoyl]amino}phenyl)pyrazolo[1,5-a]pyrimidine-3-carboxylate] | 1300 | 75 | – | –
CCOC(=O)c1cnn2c(-c3cccc(NC(=O)c4ccc(C(F)(F)F)c(F)c4)c3)ccnc12 [Example 9, ethyl 7-(3-{[3-fluoro-4-(trifluoromethyl)benzoyl]amino}phenyl)pyrazolo[1,5-a]pyrimidine-3-carboxylate] | > 20000 | 20 | – | –
O=C(Nc1cccc(-c2ccnc3cc(-c4ccnc(NCCN5CCCCC5)c4)nn23)c1)c1cccc(C(F)(F)F)c1 [Example 264, N-[3-(2-{2-[(2-piperidin-1-ylethyl)amino]pyridin-4-yl}pyrazolo[1,5-a]pyrimidin-7-yl)phenyl]-3-(trifluoromethyl)benzamide] | 95.8 | 97 | – | –
CCOC(=O)c1cnn2c(-c3cccc(NC(=O)Cc4cccc(C(F)(F)F)c4)c3)ccnc12 [Example 97, ethyl 7-[3-({[3-(trifluoromethyl)phenyl]acetyl}amino)phenyl]pyrazolo[1,5-a]pyrimidine-3-carboxylate] | 8600 | 49 | – | –
O=C(Nc1cccc(-c2ccnc3c(C(=O)NCCN4CCCC4)cnn23)c1)c1cccc(C(F)(F)F)c1 [Example 48, N-(2-pyrrolidin-1-ylethyl)-7-(3-{[3-(trifluoromethyl)benzoyl]amino}phenyl)pyrazolo[1,5-a]pyrimidine-3-carboxamide] | – | 43 | – | –
CN(C)Cc1cccc(-c2cnn3c(-c4cccc(NC(=O)c5cccc(C(F)(F)F)c5)c4)ccnc23)c1 [Example 273, N-[3-(3-{3-[(dimethylamino)methyl]phenyl}pyrazolo[1,5-a]pyrimidin-7-yl)phenyl]-3-(trifluoromethyl)benzamide] | 43.8 | 97 | – | –
N-{3-[3-(4-methoxyphenyl)pyrazolo[1,5-a]pyrimidin-7-yl]phenyl}-3-(trifluoromethyl)benzamide [Example 159] | > 10000 | – | – | 5
CCOC(=O)c1cnn2c(-c3ccc(OCc4ccccc4)c(NC(=O)c4cccc(C(F)(F)F)c4)c3)ccnc12 [Example 90, ethyl 7-(4-(benzyloxy)-3-{[3-(trifluoromethyl)benzoyl]amino}phenyl)pyrazolo[1,5-a]pyrimidine-3-carboxylate] | > 10000 | 4 | – | –

Now from value to molecule:

IC50 [1] [nM] | inhibition at 10 µM [%] | IC50 [nM] | % Inhib./10 uM (single point assay, 10 uM) [%] | Molecule
82 | 79 | – | – | COCC(=O)Nc1cccc(-c2cnn3c(-c4cccc(NC(=O)c5cccc(C(F)(F)F)c5)c4)ccnc23)c1 [Example 252, N-[3-(3-{3-[(methoxyacetyl)amino]phenyl}pyrazolo[1,5-a]pyrimidin-7-yl)phenyl]-3-(trifluoromethyl)benzamide]
2060 | 58 | – | – | CC(C)(C)OC(=O)n1cc(-c2cnn3c(-c4cccc(NC(=O)c5cccc(C(F)(F)F)c5)c4)ccnc23)cn1 [Example 276, tert-butyl 4-[7-(3-{[3-(trifluoromethyl)benzoyl]amino}phenyl)pyrazolo[1,5-a]pyrimidin-3-yl]-1H-pyrazole-1-carboxylate]
> 10000 | 64 | – | – | O=C(Nc1cccc(-c2ccnc3c(Br)cnn23)c1)c1ccc(Cl)c(Cl)c1 [Example 165, N-[3-(3-bromopyrazolo[1,5-a]pyrimidin-7-yl)phenyl]-3,4-dichlorobenzamide]
– | 67 | 367 | – | O=C(Nc1cccc(-c2ccnc3c(-c4ccccc4C(F)(F)F)cnn23)c1)c1cccc(C(F)(F)F)c1 [Example 290, 3-(trifluoromethyl)-N-(3-{3-[2-(trifluoromethyl)phenyl]pyrazolo[1,5-a]pyrimidin-7-yl}phenyl)benzamide]
– | 80 | 10700 | – | O=C(Nc1cccc(-c2ccnc3c(-c4ccc(F)nc4)cnn23)c1)c1cccc(C(F)(F)F)c1 [Example 311, N-{3-[3-(6-fluoropyridin-3-yl)pyrazolo[1,5-a]pyrimidin-7-yl]phenyl}-3-(trifluoromethyl)benzamide]
> 10000 | 24 | – | – | O=C(Nc1cccc(-c2ccnc3cc(-c4ccncc4)nn23)c1)c1ccccc1Cl [Example 145, 2-chloro-N-[3-(2-pyridin-4-ylpyrazolo[1,5-a]pyrimidin-7-yl)phenyl]benzamide]
– | 84 | 270 | – | Cc1ccc(C(=O)Nc2cccc(-c3ccnc4c(-c5cccc(C(=O)N(C)C)c5)cnn34)c2)cc1C(F)(F)F [Example 183, N-[3-(3-{3-[(dimethylamino)carbonyl]phenyl}pyrazolo[1,5-a]pyrimidin-7-yl)phenyl]-4-methyl-3-(trifluoromethyl)benzamide]
> 10000 | 41 | – | – | N#Cc1ccc(-c2cnn3c(-c4cccc(NC(=O)c5cccc(C(F)(F)F)c5)c4)ccnc23)cc1 [Example 295, N-{3-[3-(4-cyanophenyl)pyrazolo[1,5-a]pyrimidin-7-yl]phenyl}-3-(trifluoromethyl)benzamide]
1400 | 66 | – | – | Cc1cccc(C(=O)Nc2cccc(-c3ccnc4cc(-c5ccncc5)nn34)c2)c1 [Example 147, 3-methyl-N-[3-(2-pyridin-4-ylpyrazolo[1,5-a]pyrimidin-7-yl)phenyl]benzamide]
120 | 96 | – | – | O=C(Nc1cccc(-c2ccnc3cc(N4CCOCC4)nn23)c1)Nc1cccc(C(F)(F)F)c1 [Example 199, N-[3-(2-morpholin-4-ylpyrazolo[1,5-a]pyrimidin-7-yl)phenyl]-N′-[3-(trifluoromethyl)phenyl]urea]
– | 93 | 82.5 | – | O=C(Nc1cccc(-c2ccnc3c(-c4ccc(CO)cc4)cnn23)c1)c1cccc(C(F)(F)F)c1 [Example 285, N-(3-{3-[4-(hydroxymethyl)phenyl]pyrazolo[1,5-a]pyrimidin-7-yl}phenyl)-3-(trifluoromethyl)benzamide]
> 10000 | 24 | – | – | Cc1ccc(C(=O)Nc2cccc(-c3ccnc4cc(-c5cccs5)nn34)c2)cc1C(F)(F)F [Example 117, 4-methyl-N-{3-[2-(2-thienyl)pyrazolo[1,5-a]pyrimidin-7-yl]phenyl}-3-(trifluoromethyl)benzamide]
> 10000 | – | – | – | O=C(Nc1cccc(-c2ccnc3cc(-c4cccnc4)nn23)c1)c1cccc(C(F)(F)F)c1 [Example 152, N-[3-(2-pyridin-3-ylpyrazolo[1,5-a]pyrimidin-7-yl)phenyl]-3-(trifluoromethyl)benzamide]
> 10000 | 12 | – | – | O=C(Nc1cccc(-c2ccnc3cc(-c4ccc(Br)cc4)nn23)c1)c1cccc(C(F)(F)F)c1 [Example 287, N-{3-[2-(4-bromophenyl)pyrazolo[1,5-a]pyrimidin-7-yl]phenyl}-3-(trifluoromethyl)benzamide]
